From patent US20150126467A1, “USE OF ALGINATE OLIGOMERS TO ENHANCE THE EFFECTS OF ANTIFUNGAL AGENTS” (AlgiIPharma AS, priority 2011, published 2015)
Where two headings read alike, the source gives them in different places.

Assays:
[1] = test system: Candida albicans, CCUG 39343; experiment: Robotic MIC assay (Example 1); assay type: cell-based; settings: for MIC: Candida albicans, CCUG39343, 24 h, 24 hours, read-out: Minimum Inhibitory Concentration (MIC); for reduction in MIC values: comparing 0 and 10% G-block
Experimental: (§1) A robotic MIC Assay was performed as follows. OligoG CF-5/20 were dissolved in medium (Mueller-Hinton broth or M19 broth depending on experiment) to 1.25 times of the desired assay concentrations (2, 6 and 10%). The antifungal agents under test were dissolved in medium without OligoG CF-5/20 and in medium with OligoG CF-5/20 at a concentration of 1.25 times the highest desired assay concentrations. For experiments where the effect of adding different concentrations of Na^+ was investigated, NaCl was dissolved in medium to the desired concentrations (10, 30 and 50 mM).
(§2) Two-fold serial dilutions of antifungal agents were made in medium with different concentrations of OligoG CF-5/20, and the solutions were placed in four parallel wells in Nunc 384-well micro plates (30 μl per well in Nunc 242757 microplates). A group of 8 wells with no addition of antifungal agents for each OligoG CF-5/20 concentration was included on each microplate as growth reference. To each well in the 384-well assay plates was added 7.5 μl of medium inoculated with a frozen stock culture of Candida albicans (strain CCUG 39343).
The frozen stock culture was prepared by growing the Candida strain at 34° C. for 48 h on YM-agar. 1-3 colonies from the plates were grown in 6 ml YM-broth at 34° C. for 14 h before freezing in 6% glycerol at −80° C. Each batch of frozen stock culture was then characterized in separate growth experiments using Mueller-Hinton or M19 broth to determine the minimum amount of inoculum giving satisfactory growth after 48 h under the conditions relevant for the MIC assay. This inoculation procedure is used in order to reduce day to day variation in bioassays.
(§3) The micro plates were placed in plastic bags and incubated without shaking at 34° C. The optical density at 600 nm in the microwells was measured after approximately 13, 18, 24 and 34 hours of incubation, and the relative growth yield in each well was calculated based on the growth in the reference groups.

[2] = test system: Candida albicans; experiment: Robotic MIC assay with asthma/COPD medicaments (Example 5); assay type: cell-based; settings: Mueller-Hinton broth; for MIC: Candida albicans, 24 h
Experimental: as §1, §2, §3
The robotic assay described in Example 1 was employed in this Example. […] The concentration utilized for the different components were based on information from Manocha et al. (2006).
In this assay only Mueller-Hinton broth was used since this is the medium specified for standardized MIC assays (Jorgensen et al., 1999).

C[C@@H]1[C@H](O)[C@@H](C)/C=C/C=C/C=C/C=C/C=C/C=C/C=C/[C@H](O[C@@H]2O[C@H](C)[C@@H](O)[C@H](N)[C@@H]2O)C[C@@H]2O[C@](O)(C[C@@H](O)C[C@@H](O)[C@H](O)CC[C@@H](O)C[C@@H](O)CC(=O)O[C@H]1C)C[C@H](O)[C@H]2C(=O)O [Amphotericin B, amphotericin B]
0.0117 µg/mL: MIC ([2]; with Formoterol 0.5 mM (2% DMSO), G-block 10%) | MIC ([2]; with Ipratropium bromide 0.01 mM, G-block 10%) | MIC ([2]; with Salbutamol 0.01 mM, G-block 10%) | MIC ([2]; with Salbutamol 1 mM, G-block 10%)
1.2 µg/mL: MIC ([1]; M19, NaCl 0 mM) | MIC ([1]; M19, OligoG CF 5/20 0%)
0.0094 µg/mL: MIC ([1]; Mueller-Hinton, OligoG CF 5/20 10%)
0.0375 µg/mL: MIC ([1]; M19, OligoG CF 5/20 10%) | MIC ([1]; Mueller-Hinton, OligoG CF 5/20 6%)
0.3 µg/mL: MIC ([1]; M19, NaCl 10 mM) | MIC ([1]; M19, NaCl 30 mM) | MIC ([1]; M19, NaCl 50 mM) | MIC ([1]; M19, OligoG CF 5/20 2%)
0.0469 µg/mL: MIC ([2]; no medicament added, G-block 6%) | MIC ([2]; with Budesonide 0.01 mM, G-block 6%) | MIC ([2]; with Budesonide 0.01 mM, G-block 10%) | MIC ([2]; with Formoterol 0.5 mM (2% DMSO), G-block 0%) | MIC ([2]; with Formoterol 0.5 mM (2% DMSO), G-block 2%) | MIC ([2]; with Ipratropium bromide 0.01 mM, G-block 2%) | MIC ([2]; with Ipratropium bromide 1 mM, G-block 6%) | MIC ([2]; with Salbutamol 0.01 mM, G-block 0%) | MIC ([2]; with Salbutamol 0.01 mM, G-block 2%) | MIC ([2]; with Salbutamol 1 mM, G-block 0%) | MIC ([2]; with Salbutamol 1 mM, G-block 2%)
32 ×: reduction in MIC values ([1]; M19)
0.0938 µg/mL: MIC ([2]; no medicament added, G-block 0%) | MIC ([2]; no medicament added, G-block 2%) | MIC ([2]; with Budesonide 0.01 mM, G-block 0%) | MIC ([2]; with Budesonide 0.01 mM, G-block 2%) | MIC ([2]; with Ipratropium bromide 0.01 mM, G-block 0%) | MIC ([2]; with Ipratropium bromide 1 mM, G-block 2%)
16 ×: reduction in MIC values ([1]; Mueller-Hinton)
0.0234 µg/mL: MIC ([2]; no medicament added, G-block 10%) | MIC ([2]; with Formoterol 0.5 mM (2% DMSO), G-block 6%) | MIC ([2]; with Ipratropium bromide 0.01 mM, G-block 6%) | MIC ([2]; with Ipratropium bromide 1 mM, G-block 10%) | MIC ([2]; with Salbutamol 0.01 mM, G-block 6%) | MIC ([2]; with Salbutamol 1 mM, G-block 6%)
reduction in MIC values: effect of addition of OligoG CF-5/20 on MIC values ([1]; both media tested (M19, Mueller-Hinton))
0.188 µg/mL: MIC ([2]; with Ipratropium bromide 1 mM, G-block 0%)
0.15 µg/mL: MIC ([1]; Mueller-Hinton, NaCl 0 mM) | MIC ([1]; Mueller-Hinton, NaCl 10 mM) | MIC ([1]; Mueller-Hinton, NaCl 30 mM) | MIC ([1]; Mueller-Hinton, NaCl 50 mM) | MIC ([1]; Mueller-Hinton, OligoG CF 5/20 0%) | MIC ([1]; Mueller-Hinton, OligoG CF 5/20 2%)
4 ×: reduction in MIC values ([2]; addition of 10% OligoG CF-5/20 compared to without OligoG CF-5/20)
0.075 µg/mL: MIC ([1]; M19, OligoG CF 5/20 6%)
